The record followed here is PMC12343752, “Functional and structural insights into a thermostable (S)-selective amine transaminase and its improved substrate scope by protein engineering” (Applied Microbiology and Biotechnology, 2025).

In test [1] the target is T1, Sbv333-ATA (Streptomyces odorifer, UniProt A0A7Y6F089).
T1 construct: gene G6W59_16020; 6xHis-tagged, pETite vector, E. coli BL21(DE3) with GroES/GroEL, Ni-NTA (plus SEC for crystals); residues 1-459 described; dimer about 100 kDa by gel filtration; catalytic Lys289
T1 sequence (A0A7Y6F089 entry or part of it): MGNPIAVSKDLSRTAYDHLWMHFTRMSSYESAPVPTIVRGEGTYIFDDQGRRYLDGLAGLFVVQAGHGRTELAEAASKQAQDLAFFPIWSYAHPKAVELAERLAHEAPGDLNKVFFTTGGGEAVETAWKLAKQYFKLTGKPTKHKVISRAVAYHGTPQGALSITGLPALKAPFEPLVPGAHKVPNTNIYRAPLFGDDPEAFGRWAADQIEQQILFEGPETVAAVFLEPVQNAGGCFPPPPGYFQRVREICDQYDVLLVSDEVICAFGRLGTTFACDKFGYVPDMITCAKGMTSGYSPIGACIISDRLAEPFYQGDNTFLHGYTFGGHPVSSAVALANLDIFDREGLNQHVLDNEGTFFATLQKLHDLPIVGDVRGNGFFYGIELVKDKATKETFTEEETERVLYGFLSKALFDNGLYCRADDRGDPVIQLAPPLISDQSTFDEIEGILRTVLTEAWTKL
Kind of test: glycine oxidase (GO) coupled assay; acetophenone formation at […] nm. It is filed as biochemical. To be noted: 2 mM amine, 50 mM HEPES pH 9.0, room temperature (GO assay).

Test [2] has as its target Sbv333-ATA, (S)-selective amine transaminase from a Streptomyces strain (Streptomyces sp.). Kind of test: SEC; analytical gel filtration, single peak; methods describe a calibrated Superdex 200 pg HiLoad 16/600 column, 20 mM HEPES pH 9.0, 500 mM NaCl.

Take `C[C@H](N)c1ccccc1` [compound 1, (S)-methylbenzylamine]: the “glycine oxidase (GO) coupled assay; acetophenone formation at 245 nm” value in test [1] is “The enzyme was active toward a diverse set of substrates, including (S)-methylbenzylamine ((S)-1)”.
Regarding “Sbv333-ATA, (S)-selective amine transaminase from a Streptomyces strain (enzyme)”, in test [2], the stoichiometry N was found to be 2.
